For one test, the target named is full-length HAQ STING (Homo sapiens (Human), UniProt Q86WV6, G230A/H232R/R293Q/R71H). In words: 3H-cGAMP filtration binding assay (HAQ STING). The note with it: competition with tritiated cGAMP, HAQ STING membrane. From the text: The ability of compounds to bind STING is quantified by the ability to compete with tritiated cGAMP ligand for human STING receptor membrane using a radioactive filter-binding assay. The binding assay employs STING receptor obtained from Hi-Five cell membranes overexpressing full-length HAQ STING prepared in-house and tritiated cGAMP ligand also purified in-house.
full-length HAQ STING, sequence (Q86WV6 other isoform, or with tags, fused parts or gaps, stated change not applied): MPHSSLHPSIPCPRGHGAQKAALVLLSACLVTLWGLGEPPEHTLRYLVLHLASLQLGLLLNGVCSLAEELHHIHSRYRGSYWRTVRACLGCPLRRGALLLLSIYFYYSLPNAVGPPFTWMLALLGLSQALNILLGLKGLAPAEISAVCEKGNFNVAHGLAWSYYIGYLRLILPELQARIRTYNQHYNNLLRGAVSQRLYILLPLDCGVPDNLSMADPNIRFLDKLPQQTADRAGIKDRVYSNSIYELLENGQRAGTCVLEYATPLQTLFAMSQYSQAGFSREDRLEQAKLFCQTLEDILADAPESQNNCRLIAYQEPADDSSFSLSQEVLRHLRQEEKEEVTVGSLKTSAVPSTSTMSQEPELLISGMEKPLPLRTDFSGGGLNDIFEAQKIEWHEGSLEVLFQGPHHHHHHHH
The ability of compounds to bind STING is quantified by their ability to compete with tritiated cGAMP ligand for human STING receptor membrane using a radioactive filter-binding assay.
The basic HAQ STING filtration assay protocol is as follows:
Compound and membrane then preincubated for 60 min at RT to allow compound binding to equilibrate. Following equilibration, 8 nM of [^3H] c-GAMP ligand was prepared by diluting into assay buffer, and 50 uL of this working stock was then manually added to each well of the assay plate. […] The filter plates were then dried at 55° C. for 30 min using a pressurized VWR oven before 30 uL of Ultima GoldF scintillate was added to each well. Tritium levels for each reaction well were then measured using a PerkinElmer TopCount plate reader.
After normalization to controls, the percent activity for each compound concentration was calculated by measuring the amount of remaining radioactivity. The plot of percent activity versus the log of compound concentration was fit with a 4-parameter dose response equation to calculate EC50 values.

For test [1], the system named is IFN-β secretion in THP1 cells. Briefly: IFN-β secretion in THP1 cell culture (5 h). The format is cell-based, human. An outline of the steps:
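THP1 cells incubated with compound for 5 h at 37 °C, 5% CO2, and secreted IFN-β in supernatant quantified by AlphaLISA. Percent effect normalised to 30 uM cGAMP positive control and 0.3% DMSO. EC50 from 4-parameter fit.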

Where [2] appears, read: read-out: EC50 (nM), 3H-cGAMP filtration binding assay for HAQ STING.
[3] abbreviates: IFN-β secretion in THP1 cell culture, 5 h, compound at 30 μM, percent activation relative to 2′3′-cGAMP.

Where two headings read alike, the source gives them in different places.

On to `N#Cc1cn([C@@H]2O[C@@H]3COP(=O)(O)O[C@@H]4[C@H](O)[C@@H](COP(=O)(O)O[C@H]3[C@H]2O)O[C@H]4n2cnc3c(=O)[nH]c(N)nc32)c2ncnc(N)c12` [Example 60, 4-amino-7-[(5R,7R,8R,12aR,14R,15R,15aS,16R)-7-(2-amino-6-oxo-1,6-dihydro-9H-purin-9-yl)-2,10,15,16-tetrahydroxy-2,10-dioxidooctahydro-12H-5,8-methanofuro[3,2-l][1,3,6,9,11,2,10]pentaoxadiphosphacyclotetradecin-14-yl]-7H-pyrrolo[2,3-d]pyrimidine-5-carbonitrile], for which the EC50 at full-length HAQ STING (setting [2]) amounted to 42.5 nM. Besides, the “% Effect at 30 μM relative to 2′3′-cGAMP” value in test [1] (setting [3]) turned out to be 12%.

With `Nc1ncnc2c1ccn2[C@@H]1O[C@@H]2COP(=O)(O)O[C@@H]3[C@H](O)[C@@H](COP(=O)(O)O[C@H]2[C@H]1O)O[C@H]3n1cnc2c(=O)[nH]cnc21` [Example 35, 9-[(5R,7R,8R,12aR,14R,15R,15aS,16R)-14-(4-amino-7H-pyrrolo[2,3-d]pyrimidin-7-yl)-2,10,15,16-tetrahydroxy-2,10-dioxidooctahydro-12H-5,8-methanofuro[3,2-l][1,3,6,9,11,2,10]pentaoxadiphosphacyclotetradecin-7-yl]-1,9-dihydro-6H-purin-6-one], the EC50 on full-length HAQ STING (setting [2]) was found to be 7.9 nM. Further, the “% Effect at 30 μM relative to 2′3′-cGAMP” value in test [1] (setting [3]) is given as 51%.

With `Nc1nc2c(ccn2[C@@H]2O[C@@H]3COP(=O)(O)O[C@H]4[C@@H](O)[C@H](n5ccc6c(N)ncnc65)O[C@@H]4COP(=O)(O)O[C@@H]2[C@@H]3O)c(=O)[nH]1` [Example 37, 2-amino-7-[(5R,7R,8R,12aR,14R,15R,15aS,16R)-14-(4-amino-7H-pyrrolo[2,3-d]pyrimidin-7-yl)-2,10,15,16-tetrahydroxy-2,10-dioxidooctahydro-12H-5,8-methanofuro[3,2-l][1,3,6,9,11,2,10]pentaoxadiphosphacyclotetradecin-7-yl]-3,7-dihydro-4H-pyrrolo[2,3-d]pyrimidin-4-one], the EC50 on full-length HAQ STING (setting [2]) was found to be 620 nM. Besides, the “% Effect at 30 μM relative to 2′3′-cGAMP” value in test [1] (setting [3]) turned out to be 57%.

Consider `Nc1nc2c(ccn2[C@@H]2O[C@@H]3COP(=O)(O)O[C@H]4[C@@H](O)[C@H](n5cnc6c(N)ncnc65)O[C@@H]4COP(=O)(O)O[C@@H]2[C@@H]3O)c(=O)[nH]1` [Example 30, 2-amino-7-[(5R,7R,8R,12aR,14R,15R,15aS,16R)-14-(6-amino-9H-purin-9-yl)-2,10,15,16-tetrahydroxy-2,10-dioxidooctahydro-12H-5,8-methanofuro[3,2-l][1,3,6,9,11,2,10]pentaoxadiphosphacyclotetradecin-7-yl]-3,7-dihydro-4H-pyrrolo[2,3-d] pyrimidin-4-one], for which, at full-length HAQ STING (setting [2]), the EC50 is 91 nM. For the same compound, the “% Effect at 30 μM relative to 2′3′-cGAMP” value in test [1] (setting [3]) came to 131%.

Consider `Nc1nc2c(ncn2[C@@H]2O[C@@H]3COP(=O)(O)O[C@H]4C[C@H](n5cnc6c(=O)[nH]cnc65)O[C@@H]4COP(=O)(O)O[C@@H]2[C@@H]3F)c(=O)[nH]1` [Example 332, 2-amino-9-[(5R,7R,8S,12aR,14R,15aS,16R)-16-fluoro-2,10-dihydroxy-2,10-dioxido-14-(6-oxo-1,6-dihydro-9H-purin-9-yl)octahydro-12H-5,8-methanofuro[3,2-l][1,3,6,9,11,2,10]pentaoxadiphosphacy-clotetradecin-7-yl]-1,9-dihydro-6H-purin-6-one], for which the EC50 on full-length HAQ STING (setting [2]) came to 8.2 nM. Besides, the “% Effect at 30 μM relative to 2′3′-cGAMP” value in test [1] (setting [3]) was 113%.

Consider `Nc1nc2c(ncn2[C@@H]2O[C@@H]3COP(=O)(S)O[C@H]4[C@@H](O)[C@H](n5ccc6c(N)ncnc65)O[C@@H]4COP(=O)(S)O[C@@H]2C3)c(=O)[nH]1` (single isomer, unassigned) [Example 77], for which, on full-length HAQ STING (setting [2]), the EC50 amounted to 161 nM. Besides, the “% Effect at 30 μM relative to 2′3′-cGAMP” value in test [1] (setting [3]) was found to be 39%.

`Nc1nc2c(ncn2[C@@H]2O[C@@H]3COP(O)(=S)O[C@H]4C[C@H](n5cnc6c(=O)[nH]cnc65)O[C@@H]4COP(O)(=S)O[C@@H]2[C@@H]3F)c(=O)[nH]1` (single isomer, unassigned) [Example 306] displayed an EC50 on full-length HAQ STING (EC50 (nM), 3H-cGAMP filtration binding assay for HAQ STING) of 3.6 nM. In addition, the “% Effect at 30 μM relative to 2′3′-cGAMP” value in test [1] came to 153%.

Take `Nc1nc2c(ncn2[C@@H]2O[C@@H]3COP(=O)(O)O[C@H]4[C@H](Cl)[C@H](n5cnc6c(N)ncnc65)O[C@@H]4COP(=O)(O)O[C@@H]2[C@@H]3O)c(=O)[nH]1` [Example 15, 2-amino-9-[(5R,7R,8R,12aR,14R,15S,15aR,16R)-14-(6-amino-9H-purin-9-yl)-15-chloro-2,10,16-trihydroxy-2,10-dioxidooctahydro-12H-5,8-methanofuro[3,2-l][1,3,6,9,11,2,10]pentaoxadiphosphacyclotetradecin-7-yl]-1,9-dihydro-6H-purin-6-one]: at full-length HAQ STING (setting [2]), the EC50 turned out to be 378 nM. The “% Effect at 30 μM relative to 2′3′-cGAMP” value in test [1] (setting [3]) was 39%.

For the compound `Nc1nc2c(ncn2[C@@H]2O[C@@H]3COP(=O)(S)O[C@H]4[C@H](F)[C@H](n5nnc6c(=O)[nH]cnc65)O[C@@H]4COP(=O)(S)O[C@@H]2C3)c(=O)[nH]1` (stereo partly drawn) [Example 320, 3-[(5S,7R,8R,12aR,14R,15S,15aR)-7-(2-amino-6-oxo-1,6-dihydro-9H-purin-9-yl)-15-fluoro-2,10-dioxido-2,10-disulfanyloctahydro-12H-5,8-methanofuro[3,2-l][1,3,6,9,11,2,10]pentaoxadiphosphacyclotetradecin-14-yl]-3,6-dihydro-7H-[1,2,3]triazolo[4,5-d]pyrimidin-7-one], on full-length HAQ STING (setting [2]), the EC50 was 6.3 nM. Further, the “% Effect at 30 μM relative to 2′3′-cGAMP” value in test [1] (setting [3]) came out at 115%.

`Nc1ncc2ncn([C@@H]3O[C@@H]4COP(=O)(O)O[C@@H]5[C@H](O)[C@@H](COP(=O)(O)O[C@H]4[C@H]3O)O[C@H]5n3cnc4c(=O)[nH]c(N)nc43)c2n1` [Example 59, 2-amino-9-[(5R,7R,8R,12aR,14R,15R,15aS,16R)-14-(2-amino-9H-purin-9-yl)-2,10,15,16-tetrahydroxy-2,10-dioxidooctahydro-12H-5,8-methanofuro[3,2-l][1,3,6,9,11,2,10]pentaoxadiphosphacyclotetradecin-7-yl]-1,9-dihydro-6H-purin-6-one]: the EC50 on full-length HAQ STING (setting [2]) was 11.8 nM. The “% Effect at 30 μM relative to 2′3′-cGAMP” value in test [1] (setting [3]) was found to be 76%.

Turning to `O=c1[nH]cnc2c1ncn2[C@@H]1O[C@@H]2COP(=O)(O)O[C@@H]3C[C@@H](COP(=O)(O)O[C@H]2[C@H]1O)O[C@H]3n1cnc2c(=O)[nH]cnc21` [Example 333], at full-length HAQ STING (setting [2]), the EC50 is 45.9 nM. In test [1] (setting [3]), the “% Effect at 30 μM relative to 2′3′-cGAMP” value came out at 10%.

For the compound `Nc1nc2c(ncn2[C@@H]2O[C@@H]3COP(=O)(O)O[C@H]4[C@@H](F)[C@H](n5cnc6c(=O)[nH]cnc65)O[C@@H]4COP(=O)(O)O[C@@H]2C3)c(=O)[nH]1` [Example 294, 2-amino-9-[(5S,7R,8R,12aR,14R,15R,15aR)-15-fluoro-2,10-dihydroxy-2,10-dioxido-14-(6-oxo-1,6-dihydro-9H-purin-9-yl)octahydro-12H-5,8-methanofuro[3,2-l] [1,3,6,9,11,2,10]pentaoxadiphosphacyclo-tetradecin-7-yl]-1,9-dihydro-6H-purin-6-one], the EC50 at full-length HAQ STING (setting [2]) worked out at 6.6 nM. Also, the “% Effect at 30 μM relative to 2′3′-cGAMP” value in test [1] (setting [3]) stood at 84%.

Take `C[C@@H]1OP(=O)(O)O[C@@H]2C[C@@H](COP(=O)(O)O[C@H]3[C@@H](O)[C@H](n4cnc5c(N)ncnc54)O[C@H]31)O[C@H]2n1cnc2c(=O)[nH]c(N)nc21` [Example 18, 2-amino-9-[(5S,7R,8R,12S,12aS,14R,15R,15aS)-14-(6-amino-9H-purin-9-yl)-2,10,15-trihydroxy-12-methyl-2,10-dioxidooctahydro-12H-5,8-methanofuro[3,2-l][1,3,6,9,11,2,10]pentaoxadiphosphacyclotetradecin-7-yl]-1,9-dihydro-6H-purin-6-one]: on full-length HAQ STING (setting [2]), the EC50 was determined as 53.9 nM. For the same compound, the “% Effect at 30 μM relative to 2′3′-cGAMP” value in test [1] (setting [3]) is on record as 74%.

Turning to `C[C@H]1OP(=O)(O)O[C@@H]2C[C@@H](COP(=O)(O)O[C@H]3[C@@H](O)[C@H](n4cnc5c(N)ncnc54)O[C@@H]31)O[C@H]2n1cnc2c(=O)[nH]c(N)nc21` [Example 16, 2-amino-9-[(5S,7R,8R,12R,12aR,14R,15R,15aS)-14-(6-amino-9H-purin-9-yl)-2,10,15-trihydroxy-12-methyl-2,10-dioxidooctahydro-12H-5,8-methanofuro[3,2-l][1,3,6,9,11,2,10]pentaoxadiphosphacyclotetradecin-7-yl]-1,9-dihydro-6H-purin-6-one], on full-length HAQ STING (setting [2]), the EC50 was determined as 12.4 nM. In test [1] (setting [3]), the “% Effect at 30 μM relative to 2′3′-cGAMP” value is 57%.

For the compound `Nc1nc2c(ncn2[C@@H]2O[C@@H]3COP(=O)(O)O[C@H]4[C@@H](O)[C@H](n5cc(F)c6c(N)ncnc65)O[C@@H]4COP(=O)(O)O[C@@H]2[C@@H]3O)c(=O)[nH]1` [Example 33, 2-amino-9-[(5R,7R,8R,12aR,14R,15R,15aS,16R)-14-(4-amino-5-fluoro-7H-pyrrolo[2,3-d]pyrimidin-7-yl)-2,10,15,16-tetrahydroxy-2,10-dioxidooctahydro-12H-5,8-methanofuro[3,2-l][1,3,6,9,11,2,10]pentaoxadiphosphacyclotetradecin-7-yl]-1,9-dihydro-6H-purin-6-one], at full-length HAQ STING (setting [2]), the EC50 amounted to 11.9 nM. For the same compound, the “% Effect at 30 μM relative to 2′3′-cGAMP” value in test [1] (setting [3]) came to 200%.

These data come from patent US11453697B1, “Cyclic di-nucleotide compounds as sting agonists” (Merck Sharp & Dohme Corp., priority 2015, dated 2022).
